Test results taken from patent US9216999B2, “Substituted pyrrolo[2,3-h][1,6]naphthyridines and compositions thereof as JAK inhibitors” (priority 2011, dated 2015).
Like-named read-outs stand apart in the source and are kept apart here.

Key:
JAK2 = JAK2 (Homo sapiens (Human), UniProt O60674); assay: JAK2 enzyme assay (Assay Example^b 1)
JAK1 = JAK1 (Homo sapiens (Human), UniProt P23458); assay: JAK1 enzyme assay (Assay Example^b 1)
JAK3 = JAK3 (Homo sapiens (Human), UniProt P52333); assay: JAK3 enzyme assay (Assay Example^b 1)
JAK3, sequence (P52333 whole entry): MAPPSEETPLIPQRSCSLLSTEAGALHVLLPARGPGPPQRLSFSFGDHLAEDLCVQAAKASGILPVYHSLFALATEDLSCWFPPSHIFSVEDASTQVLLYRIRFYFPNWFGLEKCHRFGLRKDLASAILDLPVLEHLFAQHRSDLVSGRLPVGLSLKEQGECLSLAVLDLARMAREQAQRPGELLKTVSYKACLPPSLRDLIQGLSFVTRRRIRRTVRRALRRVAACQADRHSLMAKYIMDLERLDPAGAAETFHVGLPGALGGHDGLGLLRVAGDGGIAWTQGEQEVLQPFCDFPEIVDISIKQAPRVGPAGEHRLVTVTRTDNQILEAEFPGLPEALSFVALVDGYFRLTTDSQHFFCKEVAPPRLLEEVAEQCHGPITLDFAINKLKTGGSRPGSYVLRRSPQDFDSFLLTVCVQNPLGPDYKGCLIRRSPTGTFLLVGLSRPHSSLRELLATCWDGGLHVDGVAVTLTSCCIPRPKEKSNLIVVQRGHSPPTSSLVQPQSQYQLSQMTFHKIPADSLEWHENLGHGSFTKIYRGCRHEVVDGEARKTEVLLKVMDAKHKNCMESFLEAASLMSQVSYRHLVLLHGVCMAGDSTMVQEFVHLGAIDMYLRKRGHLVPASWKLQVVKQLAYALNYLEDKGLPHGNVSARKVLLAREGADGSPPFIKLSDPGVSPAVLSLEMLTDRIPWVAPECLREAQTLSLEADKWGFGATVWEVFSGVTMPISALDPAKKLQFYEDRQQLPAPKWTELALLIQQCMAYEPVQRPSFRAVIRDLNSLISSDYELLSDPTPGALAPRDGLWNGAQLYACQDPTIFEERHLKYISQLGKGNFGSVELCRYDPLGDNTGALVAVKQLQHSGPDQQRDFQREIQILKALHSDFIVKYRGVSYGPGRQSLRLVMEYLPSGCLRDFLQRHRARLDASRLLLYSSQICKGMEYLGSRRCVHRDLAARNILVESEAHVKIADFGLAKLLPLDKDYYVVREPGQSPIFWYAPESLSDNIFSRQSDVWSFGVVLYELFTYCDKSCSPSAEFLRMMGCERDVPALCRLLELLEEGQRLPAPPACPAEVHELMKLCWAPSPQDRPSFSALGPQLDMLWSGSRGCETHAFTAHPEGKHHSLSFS

Tyk2 = Tyk2 (Homo sapiens (Human), UniProt P29597); assay: Tyk2 enzyme assay (Assay Example^b 1)
Tyk2, sequence (P29597 whole entry): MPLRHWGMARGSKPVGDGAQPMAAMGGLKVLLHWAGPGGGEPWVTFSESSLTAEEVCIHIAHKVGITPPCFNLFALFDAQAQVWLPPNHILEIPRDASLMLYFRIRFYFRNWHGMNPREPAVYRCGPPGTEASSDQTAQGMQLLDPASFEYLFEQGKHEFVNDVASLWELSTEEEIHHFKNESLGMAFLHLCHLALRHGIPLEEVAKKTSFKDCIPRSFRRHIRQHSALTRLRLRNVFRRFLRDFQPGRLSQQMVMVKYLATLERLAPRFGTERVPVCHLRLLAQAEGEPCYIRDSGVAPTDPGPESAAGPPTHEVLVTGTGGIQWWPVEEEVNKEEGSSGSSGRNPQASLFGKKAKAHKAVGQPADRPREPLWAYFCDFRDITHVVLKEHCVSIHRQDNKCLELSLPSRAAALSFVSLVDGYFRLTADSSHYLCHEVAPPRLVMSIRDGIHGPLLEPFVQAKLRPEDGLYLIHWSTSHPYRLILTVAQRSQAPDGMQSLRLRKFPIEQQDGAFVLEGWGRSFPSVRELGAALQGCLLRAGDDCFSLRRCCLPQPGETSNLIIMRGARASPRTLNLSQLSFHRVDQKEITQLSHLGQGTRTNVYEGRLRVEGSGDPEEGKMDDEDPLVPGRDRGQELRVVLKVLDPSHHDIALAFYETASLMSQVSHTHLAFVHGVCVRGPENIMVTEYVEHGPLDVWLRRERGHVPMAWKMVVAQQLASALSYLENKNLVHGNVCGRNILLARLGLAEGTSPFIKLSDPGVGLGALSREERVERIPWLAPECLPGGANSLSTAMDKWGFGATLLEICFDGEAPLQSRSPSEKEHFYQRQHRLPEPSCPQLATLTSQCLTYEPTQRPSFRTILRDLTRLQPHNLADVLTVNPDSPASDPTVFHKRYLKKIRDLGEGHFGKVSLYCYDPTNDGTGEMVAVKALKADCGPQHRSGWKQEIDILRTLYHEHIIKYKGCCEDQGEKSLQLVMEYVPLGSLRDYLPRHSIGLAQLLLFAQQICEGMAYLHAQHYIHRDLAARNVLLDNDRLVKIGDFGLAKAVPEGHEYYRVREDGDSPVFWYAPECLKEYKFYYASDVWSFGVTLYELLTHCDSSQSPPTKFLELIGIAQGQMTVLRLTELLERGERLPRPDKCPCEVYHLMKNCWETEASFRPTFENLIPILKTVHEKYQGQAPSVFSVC

[1] = IC50 (μM) JAK2, Table^b 79, ATP 100 μM
[2] = IC50 (μM) JAK1, Table^b 78, ATP 100 μM
[3] = IC50 (μM) JAK3, Table^b 78, ATP 100 μM
[4] = IC50 (μM) TYK2, Table^b 79, ATP 100 μM
[5] = IC50 (μM) JAK2, Table^b 80, ATP 100 μM
[6] = IC50 (μM) JAK1, Table^b 80, ATP 100 μM
[7] = IC50 (μM) JAK3, Table^b 80, ATP 100 μM
[8] = IC50 (μM) TYK2, Table^b 80, ATP 100 μM

## C[C@@H]1CCN(C(=O)CC#N)C[C@@H]1n1ccc(=O)c2cnc3[nH]ccc3c21 (racemic) [compound 7]
JAK2; [1]
  IC50: 0.004 µM
JAK1; [2]
  IC50: 0.0017 µM
JAK3; [3]
  IC50: 0.0032 µM
Tyk2; [4]
  IC50: 0.06 µM

## C[C@@H]1CCN(C(=O)CC2CC2)C[C@@H]1n1ccc(=O)c2cnc3[nH]ccc3c21 (racemic) [compound 8]
JAK2; [1]
  IC50: 0.075 µM
JAK1; [2]
  IC50: 0.026 µM
JAK3; [3]
  IC50: 0.041 µM
Tyk2; [4]
  IC50: 1.5 µM

## C[C@@H]1CCN(C(=O)CC(F)(F)F)C[C@@H]1n1ccc(=O)c2cnc3[nH]ccc3c21 (racemic) [compound 9]
JAK2; [1]
  IC50: 0.0094 µM
JAK1; [2]
  IC50: 0.004 µM
JAK3; [3]
  IC50: 0.01 µM
Tyk2; [4]
  IC50: 0.15 µM

## C[C@@H]1CCN(S(=O)(=O)CC(F)(F)F)C[C@@H]1n1ccc(=O)c2cnc3[nH]ccc3c21 (racemic) [compound 11]
JAK2; [1]
  IC50: 0.033 µM

## C[C@@H]1CCN(Cc2ccccc2)C[C@@H]1n1ccc(=O)c2cnc3[nH]cc(Br)c3c21 (racemic) [compound 21]
JAK2; [5]
  IC50: 1.3 µM
JAK1; [6]
  IC50: 0.56 µM
JAK3; [7]
  IC50: 0.82 µM
Tyk2; [8]
  IC50: > 1 µM

## C[C@@H]1CCN(Cc2ccccc2)C[C@@H]1n1cc(Br)c(=O)c2cnc3[nH]ccc3c21 (racemic) [compound 24]
JAK2; IC50 (μM) JAK2
  IC50: 0.74 µM

## C[C@@H]1CCN(S(=O)(=O)c2cccc(C(F)(F)F)c2)C[C@@H]1n1ccc(=O)c2cnc3[nH]ccc3c21 (racemic) [compound 33]
JAK2; IC50 (μM) JAK2
  IC50: 0.12 µM

## C[C@@H]1CCN(Cc2cccc(C#N)c2)C[C@@H]1n1ccc(=O)c2cnc3[nH]ccc3c21 (racemic) [compound 42]
JAK2; [5]
  IC50: 0.15 µM
JAK1; [6]
  IC50: 0.016 µM
JAK3; [7]
  IC50: 0.093 µM
Tyk2; [8]
  IC50: > 1 µM

## C[C@@H]1CCN(C2CCCC2)C[C@@H]1n1ccc(=O)c2cnc3[nH]ccc3c21 (racemic) [compound 47]
Tyk2; [8]
  IC50: > 1 µM

## CC1CCN(C(=O)C2CCC(C(C)(C)C)CC2)CC1n1ccc(=O)c2cnc3[nH]ccc3c21 (single isomer, unassigned) [Synthetic Example^b 48a, 1-{1-[4-(tert-Butyl)cyclohexanecarbonyl]-4-methylpiperidin-3-yl}-1H-pyrrolo[2,3-h][1,6]naphthyridin-4(7H)-one]
JAK1; [6]
  IC50: 0.14 µM
JAK3; [7]
  IC50: > 1 µM
Tyk2; [8]
  IC50: > 1 µM

## CC1CCN(C(=O)C2CCC(C(C)(C)C)CC2)CC1n1ccc(=O)c2cnc3[nH]ccc3c21 (single isomer, unassigned) [Synthetic Example^b 48b, 1-{1-[4-(tert-Butyl)cyclohexanecarbonyl]-4-methylpiperidin-3-yl}-1H-pyrrolo[2,3-h][1,6]naphthyridin-4(7H)-one]
JAK1; [6]
  IC50: 0.094 µM
JAK3; [7]
  IC50: 0.36 µM
Tyk2; read-out: IC50 (μM) TYK2, Table^b 80, ATP 100 μM
  IC50: > 1 µM

## O=c1ccn(C2CCN(Cc3ccc(C(F)(F)F)cc3)CC2)c2c1cnc1[nH]ccc12 [Synthetic Example^b 56, 1-{1-[4-(trifluoromethyl)benzyl]piperidin-4-yl}-1H-pyrrolo[2,3-h][1,6]naphthyridin-4(7H)-one]
JAK2; [5]
  IC50: 0.24 µM
JAK1; [6]
  IC50: 0.019 µM
JAK3; [7]
  IC50: > 1 µM
Tyk2; [8]
  IC50: > 1 µM

## N#CCC[C@H]1CC[C@H](n2c(=O)[nH]c(=O)c3cnc4[nH]ccc4c32)CC1 [Synthetic Example^b 134, 3-[trans-4-(2,4-Dioxo-2,3,4,7-tetrahydro-1H-pyrrolo[3′,2′:5,6]pyrido[4,3-d]pyrimidin-1-yl)cyclohexyl]propanenitrile]
JAK1; IC50 (μM) JAK1, ATP 100 μM
  IC50: 0.002 µM
JAK3; IC50 (μM) JAK3, ATP 100 μM
  IC50: 0.81 µM
Tyk2; IC50 (μM) TYK2, ATP 100 μM
  IC50: 0.032 µM

## N#CCn1c(=O)c2cnc3[nH]ccc3c2n(C2CCCCC2)c1=O [Synthetic Example^b 137, 2-(1-Cyclohexyl-2,4-dioxo-1H-pyrrolo[3′,2′:5,6]pyrido[4,3-d]pyrimidin-3(2H,4H,7H)-yl)acetonitrile]
JAK2; IC50 (μM) JAK2, ATP 100 μM
  IC50: > 1 µM
JAK1; IC50 (μM) JAK1, ATP 100 μM
  IC50: 0.057 µM
JAK3; IC50 (μM) JAK3, ATP 100 μM
  IC50: 0.91 µM
Tyk2; IC50 (μM) TYK2, ATP 100 μM
  IC50: > 1 µM

## Cn1c(=O)c2cnc3[nH]ccc3c2n(C2CCCCC2)c1=O [Synthetic Example^b 138, 1-cyclohexyl-3-methyl-1H-pyrrolo[3′,2′:5,6]pyrido[4,3-d]pyrimidine-2,4(3H,7H)-dione]
JAK2; IC50 (μM) JAK2, ATP 100 μM
  IC50: 0.42 µM
JAK1; IC50 (μM) JAK1, ATP 100 μM
  IC50: 0.04 µM
JAK3; IC50 (μM) JAK3, ATP 100 μM
  IC50: 0.51 µM
Tyk2; IC50 (μM) TYK2, ATP 100 μM
  IC50: > 1 µM

## O=c1c2cnc3[nH]ccc3c2n(C2CCCCC2)c(=O)n1CC(F)(F)F [Synthetic Example^b 139, 1-cyclohexyl-3-(2,2,2-trifluoroethyl)-1H-pyrrolo[3′,2′:5,6]pyrido[4,3-d]pyrimidine-2,4(3H,7H)-dione]
JAK1; IC50 (μM) JAK1, ATP 100 μM
  IC50: 0.1 µM
JAK3; IC50 (μM) JAK3, ATP 100 μM
  IC50: > 1 µM
Tyk2; IC50 (μM) TYK2, ATP 100 μM
  IC50: > 1 µM

## CC1OCN(C2CCCCC2)c2c1cnc1[nH]ccc21 (stereo not drawn) [compound 1]
JAK1; [2]
  IC50: 0.38 µM
JAK3; [3]
  IC50: 2 µM
Tyk2; [4]
  IC50: 4.1 µM

## c1cc2c3c(cnc2[nH]1)COCN3C1CCCCC1 [compound 2]
JAK2; [1]
  IC50: 1.9 µM
JAK1; [2]
  IC50: 0.33 µM

## O=S1(=O)C=CN(C2CCCCC2)c2c1cnc1[nH]ccc21 [compound 12]
JAK1; [2]
  IC50: 0.13 µM
Tyk2; [4]
  IC50: > 1 µM

## O=c1ncn(C2CCCCC2)c2c1cnc1[nH]ccc12 [compound 13]
JAK2; [1]
  IC50: 0.56 µM
JAK1; [2]
  IC50: 0.042 µM
JAK3; [3]
  IC50: 1.3 µM
Tyk2; [4]
  IC50: > 1 µM

## O=C1NCc2cnc3[nH]ccc3c2N1C1CCCCC1 [compound 17]
JAK2; [1]
  IC50: 0.02 µM
JAK3; [3]
  IC50: 0.69 µM
Tyk2; [4]
  IC50: 0.093 µM

## O=c1ncc2cnc3[nH]ccc3c2n1C1CCCCC1 [compound 18]
Tyk2; [4]
  IC50: 0.25 µM

## O=c1ccn(C2CCCCC2)c2c1cnc1[nH]cnc12 [compound 20]
JAK1; [2]
  IC50: 0.28 µM
Tyk2; [4]
  IC50: 0.76 µM

## O=C1NCc2cnc3[nH]ccc3c2N1C1CCN(Cc2ccccc2)CC1 [compound 59]
JAK3; [7]
  IC50: 2.1 µM
Tyk2; [8]
  IC50: 4.3 µM

## O=C1NCc2cnc3[nH]ccc3c2N1C1CCN(Cc2cccnc2)CC1 [compound 61]
Tyk2; [8]
  IC50: 3.6 µM

## N#Cc1ccc(CN2CCC(N3C(=O)NCc4cnc5[nH]ccc5c43)CC2)cc1 [compound 62]
JAK3; [7]
  IC50: > 1 µM
Tyk2; [8]
  IC50: > 1 µM

## O=C(Nc1nncs1)N1CCC(N2C(=O)NCc3cnc4[nH]ccc4c32)CC1 [compound 64]
JAK2; [5]
  IC50: 0.02 µM
JAK1; [6]
  IC50: 0.012 µM
Tyk2; [8]
  IC50: 0.17 µM

## O=C(CC(F)(F)F)N1CCC(N2C(=O)NCc3cnc4[nH]ccc4c32)CC1 [compound 65]
JAK3; [7]
  IC50: 9.5 µM
Tyk2; [8]
  IC50: 2.9 µM

## O=C1NCc2cnc3[nH]ccc3c2N1C1CCN(Cc2cncs2)CC1 [compound 66]
JAK2; [5]
  IC50: 0.14 µM
JAK1; [6]
  IC50: 0.08 µM
Tyk2; [8]
  IC50: 0.99 µM

## O=c1ccn(C2CCN(Cc3ccc(Br)o3)CC2)c2c1cnc1[nH]ccc12 [compound 80]
JAK2; [5]
  IC50: 0.02 µM
JAK3; [7]
  IC50: 0.34 µM
Tyk2; [8]
  IC50: 0.24 µM

## O=c1[nH]c(=O)n(C2C3CC4CC2CC(O)(C4)C3)c2c1cnc1[nH]ccc12 (stereo not drawn) [compound 104]
JAK2; IC50 (μM) JAK2, ATP 100 μM
  IC50: 0.046 µM
JAK3; IC50 (μM) JAK3, ATP 100 μM
  IC50: 0.38 µM
Tyk2; IC50 (μM) TYK2, ATP 100 μM
  IC50: 0.38 µM

## O=c1[nH]c(=O)n(C2C3CC4CC2CC(O)(C4)C3)c2c1cnc1[nH]ccc12 (stereo not drawn) [compound 105]
JAK2; IC50 (μM) JAK2, ATP 100 μM
  IC50: > 1 µM
JAK3; IC50 (μM) JAK3, ATP 100 μM
  IC50: > 1 µM
Tyk2; IC50 (μM) TYK2, ATP 100 μM
  IC50: > 1 µM

## O=c1[nH]c(=O)n(C2CCN(CCNCC3CC3)CC2)c2c1cnc1[nH]ccc12 [compound 110]
JAK2; IC50 (μM) JAK2, ATP 100 μM
  IC50: > 1 µM
JAK1; IC50 (μM) JAK1, ATP 100 μM
  IC50: 0.42 µM

## O=c1[nH]c(=O)n(C2CCC(CNCC3CC3)CC2)c2c1cnc1[nH]ccc12 (stereo not drawn) [compound 117]
JAK1; IC50 (μM) JAK1, ATP 100 μM
  IC50: 0.03 µM
JAK3; IC50 (μM) JAK3, ATP 100 μM
  IC50: > 1 µM

## O=CC1CCC(n2c(=O)[nH]c(=O)c3cnc4[nH]ccc4c32)CC1 (stereo not drawn) [compound 133]
JAK1; IC50 (μM) JAK1, ATP 100 μM
  IC50: 0.012 µM
JAK3; IC50 (μM) JAK3, ATP 100 μM
  IC50: > 1 µM
Tyk2; IC50 (μM) TYK2, ATP 100 μM
  IC50: 0.41 µM

## O=C(CC(F)(F)F)N(CC(F)(F)F)C[C@H]1CC[C@H](n2c(=O)[nH]c(=O)c3cnc4[nH]ccc4c32)CC1 [compound 155]
JAK2; IC50 (μM) JAK2, ATP 100 μM
  IC50: 0.055 µM
JAK1; IC50 (μM) JAK1, ATP 100 μM
  IC50: 0.0021 µM
